Reference: ChEMBL document CHEMBL5625279, “Synthesis and antiproliferative activity of a tetrahydrofuran analog of FR901464” (2024)

Experiments:
Assay type in all cases: functional
HCT-116 = assay: Antiproliferative activity against human HCT-116 cells assessed as growth inhibition incubated for 3 days; conditions: HCT-116, 72 h, time 3 day
A549 = assay: Antiproliferative activity against human A549 cells assessed as growth inhibition incubated for 3 days; conditions: A549, 72 h, time 3 day
LS174T = assay: Antiproliferative activity against human LS174T cells assessed as growth inhibition incubated for 3 days; conditions: 72 h, time 3 day

SMILES | GI50 (HCT-116) [µM] | GI50 (A549) [µM] | GI50 (LS174T) [µM]
COCO[C@@H](C)/C=C\C(=O)N[C@@H]1C[C@H](C)[C@H](C/C=C(C)/C=C/[C@@H](O)[C@H]2OC(C)(C)C[C@@]23CO3)O[C@@H]1C | 3.4 | 8.7 | 5.5
CC(=O)O[C@@H](C)/C=C\C(=O)N[C@@H]1C[C@H](C)[C@H](C/C=C(C)/C=C/[C@H]2OC(C)(C)C[C@@]3(CO3)[C@@H]2O)O[C@@H]1C | 0.0011 | 0.0074 | 0.0057
COCO[C@@H](C)/C=C\C(=O)N[C@@H]1C[C@H](C)[C@H](C/C=C(C)/C=C/[C@H]2OC(C)(C)C[C@@]3(CO3)[C@@H]2O)O[C@@H]1C | 0.0031 | 0.0039 | 0.0084
COc1cccc2c1C(=O)c1c(O)c3c(c(O)c1C2=O)C[C@@](O)(C(=O)CO)C[C@@H]3O[C@H]1C[C@H](N)[C@H](O)[C@H](C)O1 [DOXORUBICIN] | 0.077 | 0.608 | 0.248
